# Measured values published in publication PMC6327998, “Synthesis and biological evaluation of thiazole derivatives as LbSOD inhibitors” (Journal of Enzyme Inhibition and Medicinal Chemistry, 2018).
# How the values were obtained:
# [1] = target: T1, LbSOD (Leishmania braziliensis iron superoxide dismutase, FeSOD); experiment: Kd from concentration-response (FITC-labeled protein fluorescence / thermal shift); binding confirmed by ITC
# T1 construct: recombinant from pETM11-LbSOD, 6xHis-tag removed by TEV protease (23 kDa)
# [2] = target: T1, LbSOD (Leishmania braziliensis iron superoxide dismutase, FeSOD); experiment: Kd from concentration-response (FITC-labeled protein fluorescence / thermal shift); format: binding
SMILES,Kd [1] [mM],Kd [2] [mM]
"O=[N+]([O-])c1ccc(-c2csc(N=Cc3ccc(Br)c(Br)c3)n2)cc1 [Ju-480, N-(3,4-dibromobenzylidene)-4–(4-nitrophenyl)thiazol-2-imine]",0.0048 ± 0.0125,–
"COc1cccc(C=Nc2nc(-c3ccc(Br)cc3)cs2)c1 [Ju-514, N-(3-methoxybenzylidene)-4–(4-bromophenyl)thiazol-2-imine]",–,6.1 ± 0.8
